US20230233569A1 (Revolution Medicines, Inc., priority 2020, published 2023)
Where two headings read alike, the source gives them in different places.

Experiments:
[1] = system: Capan-1 (K-Ras G12V); test: CellTiter-Glo cell viability assay, 5-day treatment; format: cell-based; details: Homo sapiens, CAPAN-1, 120 h, 5-day treatment; read-out: Capan-1 Cell Viability assay data (K-Ras G12V, IC50)
Outline: (§1)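 Seeded cells received test compound by direct dispensing. On day 5 the plates sat at room temperature approximately 30 minutes, then luminescence was measured. Data were normalized to DMSO and curve-fitted with four parameters.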

[2] = system: NCI-H358 (K-Ras G12C); test: as above; format: cell-based; details: Homo sapiens, NCI-H358, 120 h, 5-day treatment; read-out: H358 Cell Viability assay data (K-Ras G12C, IC50)
Outline: as §1

[3] = target: KRAS G12C (Homo sapiens, UniProt P01116+P62937, G12C); test: Disruption of BRAF RBD interaction with Ras (FRET / MOA assay, with Cyclophilin A); format: biochemical
Outline: (§2)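 Measured via TR-FRET after 3 h at 25 °C with compound (30 μM top, threefold serial steps, ten concentrations) plus K-Ras, Cyclophilin A and BRAF RBD, followed by 1.5 h with anti-His europium (10 nM) and anti-GST allophycocyanin (50 nM). Signal loss versus DMSO gave IC50.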

[4] = target: KRAS G12D (Homo sapiens, UniProt P01116+P62937, G12D); test: as above; format: biochemical
Outline: as §2

[5] = target: KRAS G12S (Homo sapiens, UniProt P01116+P62937, G12S); test: as above; format: biochemical
Outline: as §2

[6] = target: KRAS G12V (Homo sapiens, UniProt P01116+P62937, G12V); test: as above; format: biochemical
Outline: as §2

[7] = target: KRAS G13C (Homo sapiens, UniProt P01116+P62937, G13C); test: as above; format: biochemical
Outline: as §2

[8] = target: KRAS G13D (Homo sapiens, UniProt P01116+P62937, G13D); test: as above; format: biochemical
Outline: as §2

[9] = target: KRAS WT (Homo sapiens, UniProt P01116+P62937); test: as above; format: biochemical
Outline: as §2

[10] = target: NRAS G12C (Homo sapiens, UniProt P01111+P62937, G12C); test: as above; format: biochemical
[11] = target: KRAS Q61H (Homo sapiens, UniProt P01116+P62937, Q61H); test: as above; format: biochemical; details: KRAS Q61H; read-out: KRAS Q61H FRET data IC50
Outline: (§3)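 IC50 reflects compound-driven Ras:Cyclophilin A ternary complex displacing BRAF RBD, read as lowered TR-FRET ratio relative to DMSO after Eu anti-His (10 nM) and APC anti-GST (50 nM) detection for 1.5 h. Prior incubation 3 h, 25° C, with 12.5 nM GMPPNP-loaded Ras, 50 nM BRAF RBD, 25 μM Cyclophilin A; top compound 30 μM.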

[12] = target: NRAS Q61K (Homo sapiens, UniProt P01111+P62937, Q61K); test: as above; format: biochemical; details: NRAS Q61K; read-out: NRAS Q61K FRET data IC50
Outline: as §3

[13] = target: NRAS Q61R (Homo sapiens, UniProt P01111+P62937, Q61R); test: as above; format: biochemical; details: NRAS Q61R; read-out: NRAS Q61R FRET data IC50
Outline: as §3

[14] = target: NRAS WT (Homo sapiens, UniProt P01111+P62937); test: as above; format: biochemical; details: NRAS WT; read-out: NRAS WT FRET data IC50
Outline: as §3

[15] = read-out: KRAS G12C FRET data, IC50
[16] = read-out: KRAS G12D FRET data, IC50
[17] = read-out: KRAS G12S FRET data, IC50
[18] = KRAS G12V, read-out: KRAS G12V FRET data IC50
[19] = read-out: KRAS G13C FRET data, IC50
[20] = KRAS G13D, read-out: KRAS G13D FRET data IC50
[21] = KRAS WT, read-out: KRAS WT FRET data IC50
[22] = NRAS G12C, read-out: NRAS G12C FRET data IC50

Chain of KRAS WT (P01116 1-169 isoform P01116-2 limits assumed): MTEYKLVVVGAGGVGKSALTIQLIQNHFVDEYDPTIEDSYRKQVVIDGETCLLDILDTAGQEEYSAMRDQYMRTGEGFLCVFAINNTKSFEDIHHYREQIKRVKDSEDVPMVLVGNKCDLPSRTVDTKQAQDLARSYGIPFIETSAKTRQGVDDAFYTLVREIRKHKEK
Chain of KRAS WT (P62937 whole entry): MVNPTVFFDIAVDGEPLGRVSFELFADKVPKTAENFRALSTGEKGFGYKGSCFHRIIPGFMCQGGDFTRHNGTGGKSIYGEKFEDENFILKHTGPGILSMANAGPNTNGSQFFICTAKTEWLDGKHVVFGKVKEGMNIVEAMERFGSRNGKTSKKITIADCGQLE
Chain of KRAS G12V (P01116 1-169 isoform P01116-2 G12V limits assumed): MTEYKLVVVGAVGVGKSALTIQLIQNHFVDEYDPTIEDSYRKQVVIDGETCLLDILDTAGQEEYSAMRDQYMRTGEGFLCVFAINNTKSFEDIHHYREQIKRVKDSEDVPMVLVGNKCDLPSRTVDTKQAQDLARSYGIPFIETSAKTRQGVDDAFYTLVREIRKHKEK
Chain of KRAS G12V (P62937 whole entry): as the sequence (P62937 whole entry) above
Chain of KRAS G13C (P01116 1-169 isoform P01116-2 G13C): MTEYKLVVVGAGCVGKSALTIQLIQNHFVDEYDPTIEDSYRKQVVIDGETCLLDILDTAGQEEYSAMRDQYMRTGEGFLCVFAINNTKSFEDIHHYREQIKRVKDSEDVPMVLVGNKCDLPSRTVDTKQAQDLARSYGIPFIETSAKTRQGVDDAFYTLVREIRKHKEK
Chain of KRAS G13C (P62937 whole entry): as the sequence (P62937 whole entry) above
Chain of KRAS G12S (P01116 1-169 isoform P01116-2 G12S limits assumed): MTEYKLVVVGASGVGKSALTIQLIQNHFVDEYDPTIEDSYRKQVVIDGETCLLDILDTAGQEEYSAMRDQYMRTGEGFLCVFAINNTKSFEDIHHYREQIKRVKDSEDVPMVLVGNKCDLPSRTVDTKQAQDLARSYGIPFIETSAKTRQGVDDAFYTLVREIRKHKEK
Chain of KRAS G12S (P62937 whole entry): as the sequence (P62937 whole entry) above
Chain of NRAS WT (P01111 whole entry): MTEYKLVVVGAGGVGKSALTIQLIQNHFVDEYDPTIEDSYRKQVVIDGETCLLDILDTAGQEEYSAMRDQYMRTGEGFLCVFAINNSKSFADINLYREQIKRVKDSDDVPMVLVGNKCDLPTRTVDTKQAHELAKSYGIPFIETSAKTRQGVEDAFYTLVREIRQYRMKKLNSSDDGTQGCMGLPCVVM
Chain of NRAS WT (P62937 whole entry): as the sequence (P62937 whole entry) above
Chain of KRAS Q61H (P01116 1-169 isoform P01116-2 Q61H limits assumed): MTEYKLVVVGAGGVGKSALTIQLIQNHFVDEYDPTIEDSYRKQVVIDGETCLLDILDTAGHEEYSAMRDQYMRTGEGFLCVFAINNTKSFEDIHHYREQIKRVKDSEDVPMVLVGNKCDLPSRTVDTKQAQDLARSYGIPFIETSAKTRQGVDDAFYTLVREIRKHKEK
Chain of KRAS Q61H (P62937 whole entry): as the sequence (P62937 whole entry) above
Chain of KRAS G13D (P01116 1-169 isoform P01116-2 G13D limits assumed): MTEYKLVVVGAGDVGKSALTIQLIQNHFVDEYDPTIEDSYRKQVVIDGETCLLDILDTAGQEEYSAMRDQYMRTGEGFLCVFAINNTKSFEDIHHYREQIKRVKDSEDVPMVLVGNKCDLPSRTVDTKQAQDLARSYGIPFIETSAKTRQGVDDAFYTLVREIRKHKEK
Chain of KRAS G13D (P62937 whole entry): as the sequence (P62937 whole entry) above
Chain of KRAS G12C (P01116 1-169 isoform P01116-2 G12C): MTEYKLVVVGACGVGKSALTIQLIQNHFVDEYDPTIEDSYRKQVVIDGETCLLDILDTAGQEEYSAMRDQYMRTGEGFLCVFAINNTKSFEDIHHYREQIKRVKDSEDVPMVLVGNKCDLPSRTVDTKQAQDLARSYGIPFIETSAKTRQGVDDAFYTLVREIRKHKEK
Chain of KRAS G12C (P62937 whole entry): as the sequence (P62937 whole entry) above
Chain of NRAS Q61R (P01111 whole entry Q61R): as the sequence (P01111 whole entry) above, with Q61R counted along it
Chain of NRAS Q61R (P62937 whole entry): as the sequence (P62937 whole entry) above
Chain of NRAS G12C (P01111 whole entry G12C): as the sequence (P01111 whole entry) above, with G12C counted along it
Chain of NRAS G12C (P62937 whole entry): as the sequence (P62937 whole entry) above
Chain of NRAS Q61K (P01111 whole entry Q61K): as the sequence (P01111 whole entry) above, with Q61K counted along it
Chain of NRAS Q61K (P62937 whole entry): as the sequence (P62937 whole entry) above
Chain of KRAS G12D (P01116 1-169 isoform P01116-2 G12D limits assumed): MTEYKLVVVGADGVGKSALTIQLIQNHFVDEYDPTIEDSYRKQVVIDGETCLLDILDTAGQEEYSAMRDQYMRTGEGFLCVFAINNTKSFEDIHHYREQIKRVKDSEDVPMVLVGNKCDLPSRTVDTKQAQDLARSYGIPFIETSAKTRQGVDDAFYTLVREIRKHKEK
Chain of KRAS G12D (P62937 whole entry): as the sequence (P62937 whole entry) above

| SMILES | IC50 [2] [nM] | IC50 [3, 15] [nM] | IC50 [4, 16] [nM] | IC50 [5, 17] [nM] | IC50 [6, 18] [nM] | IC50 [7, 19] [nM] | IC50 [8, 20] [nM] | IC50 [9, 21] [nM] | IC50 [10, 22] [nM] | IC50 [11] [nM] | IC50 [12] [nM] | IC50 [13] [nM] | IC50 [14] [nM] | IC50 [1] [nM] | further results |
| --- | --- | --- | --- | --- | --- | --- | --- | --- | --- | --- | --- | --- | --- | --- | --- |
| CCn1c(-c2cccnc2[C@H](C)OC)c2c3cc(ccc31)-c1csc(n1)C[C@H](NC(=O)[C@H](C(C)C)N(C)C(=O)N1CCC[C@@H](N(C)C)C1)C(=O)N1CCC[C@H](N1)C(=O)OCC(C)(C)C2 (atropisomer, axis not shown) [Example A531] | 10 to 100 | 100 to 1000 | 100 to 1000 | 100 to 1000 | 100 to 1000 | 100 to 1000 | 100 to 1000 | 100 to 1000 | 10 to 100 | 10 to 100 | 10 to 100 | 100 to 1000 | 10 to 100 | 10 to 100 |  |
| CCn1c(-c2cccnc2[C@H](C)OC)c2c3cc(ccc31)-c1csc(n1)C[C@H](NC(=O)[C@H](C(C)C)N(C)C(=O)N1CC3(CC(N(C)CCOC)C3)C1)C(=O)N1CCC[C@H](N1)C(=O)OCC(C)(C)C2 (atropisomer, axis not shown) [Example A532] | 10 to 100 | 100 to 1000 | 1000 to 10000 | 100 to 1000 | 100 to 1000 | 100 to 1000 | 100 to 1000 | 100 to 1000 | 100 to 1000 | 100 to 1000 | 10 to 100 | 100 to 1000 | 100 to 1000 | 10 to 100 |  |
| CCn1c(-c2cccnc2[C@H](C)OC)c2c3cc(ccc31)-c1csc(n1)C[C@H](NC(=O)[C@H](C(C)C)N(C)C(=O)N1CC(S(=O)(=O)NC)C1)C(=O)N1CCC[C@H](N1)C(=O)OCC(C)(C)C2 (atropisomer, axis not shown) [Example A549] | 10 to 100 | 10 to 100 | 100 to 1000 | 100 to 1000 | 100 to 1000 | 100 to 1000 | 100 to 1000 | 100 to 1000 | 10 to 100 | 10 to 100 | 10 to 100 | 100 to 1000 | 100 to 1000 | 10 to 100 |  |
| CCn1c(-c2cccnc2[C@H](C)OC)c2c3cc(ccc31)-c1csc(n1)C[C@H](NC(=O)[C@H](C(C)C)N(C)C(=O)N1CC(N(C)S(C)(=O)=O)C1)C(=O)N1CCC[C@H](N1)C(=O)OCC(C)(C)C2 (atropisomer, axis not shown) [Example A550] | 10 to 100 | 10 to 100 | 1000 to 10000 | 100 to 1000 | 100 to 1000 | 100 to 1000 | 100 to 1000 | 100 to 1000 | 10 to 100 | 10 to 100 | 10 to 100 | 100 to 1000 | 100 to 1000 | 10 to 100 |  |
| CCn1c(-c2cc(N3CCN(C)CC3)cnc2[C@H](C)OC)c2c3cc(ccc31)-c1cccc(c1)C[C@H](NC(=O)[C@H](C(C)C)N(C)C(=O)[C@@H]1OCC[C@@H]1c1ccccc1)C(=O)N1CCC[C@H](N1)C(=O)OCC(C)(C)C2 (atropisomer, axis not shown) [Example A562] | < 10 | 10 to 100 | 100 to 1000 | 100 to 1000 | 10 to 100 | 10 to 100 | 100 to 1000 | 10 to 100 | 10 to 100 | 10 to 100 | 100 to 1000 | 10 to 100 | 10 to 100 | < 10 |  |
| CCn1c(-c2cccnc2[C@H](C)OC)c2c3cc(ccc31)-c1csc(n1)C[C@H](NC(=O)[C@H](C(C)C)N(C)C(=O)N1CC[C@@H](N(C)C)C1)C(=O)N1CCC[C@H](N1)C(=O)OCC(C)(C)C2 (atropisomer, axis not shown) [Example A566] | 10 to 100 | 100 to 1000 | 100 to 1000 | 100 to 1000 | 100 to 1000 | 100 to 1000 | 100 to 1000 | 100 to 1000 | 100 to 1000 | 10 to 100 | 10 to 100 | 100 to 1000 | 100 to 1000 | 10 to 100 |  |
| CCn1c(-c2cccnc2[C@H](C)OC)c2c3cc(ccc31)-c1csc(n1)C[C@H](NC(=O)[C@H](C(C)C)N(C)C(=O)N1CCC(N(C)C)CC1)C(=O)N1CCC[C@H](N1)C(=O)OCC(C)(C)C2 (atropisomer, axis not shown) [Example A571] | 10 to 100 |  |  |  |  |  |  |  |  | 10 to 100 | 10 to 100 | 100 to 1000 | 10 to 100 | 10 to 100 | IC50 ([3]; KRAS G12C FRET data, IC50): 10 to 100 nM; IC50 ([4]; KRAS G12D FRET data, IC50): 100 to 1000 nM; IC50 ([5]; KRAS G12S FRET data, IC50): 100 to 1000 nM; IC50 ([6]; KRAS G12V FRET data IC50, KRAS G12V): 100 to 1000 nM; IC50 ([7]; KRAS G13C FRET data, IC50): 100 to 1000 nM; IC50 ([8]; KRAS G13D FRET data IC50, KRAS G13D): 100 to 1000 nM; IC50 ([9]; KRAS WT FRET data IC50, KRAS WT): 10 to 100 nM; IC50 ([10]; NRAS G12C FRET data IC50, NRAS G12C): 10 to 100 nM |

More lines, main results first:

| IC50 [2] [nM] | IC50 [3, 15] [nM] | IC50 [4, 16] [nM] | IC50 [5, 17] [nM] | IC50 [6, 18] [nM] | IC50 [7, 19] [nM] | IC50 [8, 20] [nM] | IC50 [9, 21] [nM] | IC50 [10, 22] [nM] | IC50 [11] [nM] | IC50 [12] [nM] | IC50 [13] [nM] | IC50 [14] [nM] | SMILES | IC50 [1] [nM] | further results |
| --- | --- | --- | --- | --- | --- | --- | --- | --- | --- | --- | --- | --- | --- | --- | --- |
| < 10 | < 10 | 10 to 100 | 10 to 100 | 10 to 100 | 10 to 100 | 10 to 100 | 10 to 100 | 10 to 100 | < 10 | 10 to 100 | 10 to 100 | 10 to 100 | CCn1c(-c2cccnc2[C@H](C)OC)c2c3cc(ccc31)-c1cc(O)cc(c1)C[C@H](NC(=O)[C@H](C(C)C)N(C)C(=O)[C@@H]1OCC[C@@H]1c1cccnc1)C(=O)N1CCC[C@H](N1)C(=O)OCC(C)(C)C2 (atropisomer, axis not shown) [Example A546] | 10 to 100 |  |
| < 10 | 10 to 100 | 100 to 1000 | 10 to 100 | 10 to 100 | 10 to 100 | 100 to 1000 | 10 to 100 | 10 to 100 | 10 to 100 | 10 to 100 | 10 to 100 | 10 to 100 | CCn1c(-c2cc(N3CCN(C)CC3)cnc2[C@H](C)OC)c2c3cc(ccc31)-c1csc(n1)C[C@H](NC(=O)[C@H](C(C)C)N(C)C(=O)N1CCOCC1)C(=O)N1CCC[C@H](N1)C(=O)OCC(C)(C)C2 (atropisomer, axis not shown) [Example A555] | < 10 |  |
| 10 to 100 | 10 to 100 | 100 to 1000 | 10 to 100 | 100 to 1000 | 100 to 1000 | 100 to 1000 | 10 to 100 | 10 to 100 | 10 to 100 | 10 to 100 | 10 to 100 | 10 to 100 | CCn1c(-c2cccnc2[C@H](C)OC)c2c3cc(ccc31)-c1csc(n1)C[C@H](NC(=O)[C@H](C(C)C)N(C)C(=O)N1CCC3(CCN(C)CC3)C1)C(=O)N1CCC[C@H](N1)C(=O)OCC(C)(C)C2 (atropisomer, axis not shown) [Example A565] | 10 to 100 |  |
| 10 to 100 | 10 to 100 | 100 to 1000 | 100 to 1000 | 100 to 1000 | 100 to 1000 | 100 to 1000 | 100 to 1000 | 10 to 100 | 10 to 100 | 10 to 100 | 100 to 1000 | 100 to 1000 | CCn1c(-c2cccnc2[C@H](C)OC)c2c3cc(ccc31)-c1csc(n1)C[C@H](NC(=O)[C@H](C(C)C)N(C)C(=O)N1C[C@H](N)[C@@H](F)C1)C(=O)N1CCC[C@H](N1)C(=O)OCC(C)(C)C2 (atropisomer, axis not shown) [Example A567] | 100 to 1000 |  |
